One may read the inhibition as the relative decrease from the control value, in per cent.

Among the data in patent publication US20250280828A1, “FUNGICIDAL COMPOSITIONS” (SYNGENTA CROP PROTECTION AG, priority 2020, published 2025) are inhibition values, retold here.

This assay deals with Phakopsora pachyrhizi. The assay can be described thus: Preventative control against Phakopsora pachyrhizi (Asian soybean rust) / soybean / leaf disc. The settings on record: foliar, evaluation 11 to 14 days after inoculation, read-out: Combined inhibition (observed); for inhibition at 0.4 g/ha: single active ingredient at 0.4 g/ha; for inhibition at 0.8 g/ha: single active ingredient at 0.8 g/ha. Type of assay: in vivo. How it is done:
Whole soybean plants are treated with the recited compositions of active ingredients four weeks after planting. One day after spraying application leaf discs are cut from the first trifoliate leaf. Five repetitions at each rate are conducted. The leaf discs are inoculated with Phakopsora pachyrhizi one day after treatment. Evaluation of the leaf discs is conducted 11 to 14 days after inoculation and the biological activity is derived from the relation of the treated compared to untreated, infested check plants. The rates of the active ingredients used are given in Tables 1 to 6 as g active ingredient (a.i.)/ha. Results from the tests outlined above are shown below in Tables 1 to 6. […] According to COLBY, in mathematical terms the synergism factor SF corresponds to O/E. In the agricultural practice an SF of […] indicates significant improvement over the purely complementary addition of activities (expected activity), while an SF of ≤0.9 in the practical application routine signals a loss of activity compared to the expected activity.

Each structure is given as a SMILES string.

As for `CCC(=O)Oc1c(OC)ccnc1C(=O)N[C@@H](C)C(=O)O[C@@H](C)[C@@H](C)c1ccccc1C` [A.03, [(1S,2S)-1-methyl-2-(o-tolyl)propyl](2S)-2-[(4-methoxy-3-propanoyloxy-pyridine-2-carbonyl)amino]propanoate], the inhibition at 0.4 g/ha is 10% and the inhibition at 0.8 g/ha came out at 42%. The inhibition at 0.2 g/ha (single active ingredient at 0.2 g/ha) stood at 0%.

`CON(Cc1ccc(-c2noc(C(F)(F)F)n2)cc1)C(=O)C1CC1` [B.01, N-methoxy-N-[[4-[5-(trifluoromethyl)-1,2,4-oxadiazol-3-yl]phenyl]methyl]cyclopropanecarboxamide]: the inhibition at 0.8 g/ha was found to be 65%. As for `COC(C)C(=O)N(Cc1ccc(-c2noc(C(F)(F)F)n2)cc1)OC` (stereo not shown) [B.02, N,2-dimethoxy-N-[[4-[5-(trifluoromethyl)-1,2,4-oxadiazol-3-yl]phenyl]methyl]propanamide], the inhibition at 0.4 g/ha stood at 64%. In the case of `CCN(Cc1ccc(-c2noc(C(F)(F)F)n2)cc1)C(=O)C(C)C` [B.03, N-ethyl-2-methyl-N-[[4-[5-(trifluoromethyl)-1,2,4-oxadiazol-3-yl]phenyl]methyl]propanamide], the inhibition at 0.4 g/ha was 21% and the inhibition at 0.8 g/ha is 55%. Take `CNC(=O)N(Cc1ccc(-c2noc(C(F)(F)F)n2)cc1)OC` [B.04, 1-methoxy-3-methyl-1-[[4-[5-(trifluoromethyl)-1,2,4-oxadiazol-3-yl]phenyl]methyl]urea]: the inhibition at 0.4 g/ha stood at 44%. The same measure, in the same setting: the figure for `CCNC(=O)N(Cc1ccc(-c2noc(C(F)(F)F)n2)cc1)OC` [B.06, 3-ethyl-1-methoxy-1-[[4-[5-(trifluoromethyl)-1,2,4-oxadiazol-3-yl]phenyl]methyl]urea] is 22%; for `CCOC(=O)c1cnn(Cc2ccc(-c3noc(C(F)(F)F)n3)cc2)c1` [B.10, ethyl 1-[[4-[5-(trifluoromethyl)-1,2,4-oxadiazol-3-yl]phenyl]methyl]pyrazole-4-carboxylate] it is 55%.
